In PubChem BioAssay (NCI):
Values joined by “and” are separate entries in the source; they are usually repeats but may differ in a detail not shown here. Identical values can stand only once.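 These data come from cells grown in 96-well plates and exposed to compound for 48 hours at five concentrations. GI50 is the concentration that inhibits growth by half. Definition used: TGI = concentration required for complete inhibition of growth.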

Experiments:
Assay in all cases: NCI anticancer screen, dose series, 48 h
T-47D breast = tested on: T-47D breast
HT29 colon = tested on: HT29 colon
SF-268 CNS = tested on: SF-268 CNS
LOX IMVI melanoma = tested on: LOX IMVI melanoma
BT-549 breast = tested on: BT-549 breast
UO-31 renal = tested on: UO-31 renal
KM12 colon = tested on: KM12 colon
HCT-116 colon = tested on: HCT-116 colon
OVCAR-8 ovarian = tested on: OVCAR-8 ovarian
M14 melanoma = tested on: M14 melanoma

SMILES	TGI (T-47D breast) [µM]	TGI (HT29 colon) [µM]	TGI (SF-268 CNS) [µM]	TGI (LOX IMVI melanoma) [µM]	TGI (BT-549 breast) [µM]	TGI (UO-31 renal) [µM]	TGI (KM12 colon) [µM]	TGI (HCT-116 colon) [µM]	TGI (OVCAR-8 ovarian) [µM]	TGI (M14 melanoma) [µM]	GI50 (SF-268 CNS)	GI50 (BT-549 breast)	GI50 (UO-31 renal) [µM]	GI50 (LOX IMVI melanoma) [µM]
N=C1C=CC(=C(c2ccc(N)cc2)c2ccc(N)cc2)C=C1	8.74	14.3	14.9	15.4	7.97	29.2	13.7	13.9	15.9	15.8				
O=C(CSc1nc2ccc(I)cc2c(=O)n1Cc1ccccc1)Nc1ccccc1	> 100	> 100	29.2	> 100	54.6	1.55	> 100	> 100	30	> 100				
CCOc1ccccc1N=NC1C(=O)N(C(=O)CC(=O)Nc2ccccc2C)N=C1C (centres undefined)	> 100	> 100	63.6	> 100	> 100	63.6	> 100	> 100	> 100	> 100				
CC(=O)NC1C(OCc2ccccc2)OC(CO)C(O)C1OC(C)C(=O)NC(C(=O)NC(CCC(=O)NCCCNc1ccc([N+](=O)[O-])c2[nH]c3ccccc3c(=O)c12)C(N)=O)C(C)C (centres undefined)	> 100	> 100	> 100	> 100	> 100	> 100	> 100	> 100	> 100	> 100				
O=C1C(c2ccccc2)=C(c2ccccc2)C1(Cl)Cl	10.6	13.6	12.7	4.25	6.99	13.5	19.2	2.85	8.98	5.9				
COC(=O)C1=C(C)NC(C)=C(C(=O)OC)C1c1cccc(/[N+]([O-])=C/c2ccccc2)c1	41.6	87.4	> 100	> 100	30.3	> 100	> 100	30.4	32.7	35				
C1=CC2C(C3CN(c4ccccc4)N=C13)C1C3C4C=CC21C=CC43 (centres undefined)	> 100	> 100	> 100	> 100	> 100	> 100	> 100	> 100	> 100	> 100				
NS(=O)(=O)c1ccc(-c2ccc([As](=O)(O)O)cc2)cc1	> 100	> 100	> 100	> 100	> 100	> 100	> 100	> 100	> 100	> 100				
CCOC(=O)c1ccc2nc3n(c2c1)C(c1c(F)cccc1F)SC3 (centres undefined)	> 100	> 100	> 100	> 100	> 100	> 100	> 100	> 100	> 100	> 100				
O=C(CC(=O)N1N=C(c2ccccc2)C(N=Nc2ccc(S(=O)(=O)CCOS(=O)(=O)O)cc2)C1=O)Nc1ccc(Cl)cc1 (centres undefined)	> 100	> 100	> 100	> 100	> 100	> 100	> 100	> 100	> 100	> 100				
O/N=C1\C/C(=N\O)c2c(Br)sc(Br)c21	> 100	> 100	96.5	45.2	> 100	> 100	> 100	> 100	40.3	> 100				
COc1cc2nc(-c3cccs3)nc(Nc3ccccc3C(=O)NN)c2cc1OC	> 100	> 100	> 100	> 100	> 100	> 100	> 100	> 100	> 100	> 100				
CC(C)OC1=C(CC2(C)OCCO2)C(=O)C12OCCO2	> 100	> 100	> 100	> 100	> 100	> 100	> 100	> 100	> 100	> 100				
Cc1cc2nc3c(C#N)c(C)c(CCCl)c(Cl)n3c2cc1C	8.9	5.91	3.76	2.88	7.15	7.25	14.4	3.06	7.55	6.16				
CC1(C)CCCCCC(O)C(O)CCC(C)(C)C1=O (centres undefined)	> 100	> 100	> 100	> 100	> 100	> 100	> 100	> 100	> 100	> 100				
NC(=Nc1ccccc1)N/N=C/c1c[nH]c2ccccc12	6.89	1.54	15	8.92	16.9	12.9	5.28	8.67	3.98	1.53				
N#Cc1ccc(-c2ccc(Cl)cc2)n(C2OC(CO)C(O)C(O)C2O)c1=S (centres undefined)	> 100	> 100	> 100	> 100	> 100	> 100	> 100	> 100	> 100	> 100	> 100 µM and 39.6 µM	> 100 µM and 24.9 µM		
COC(=O)NC(Cc1ccccc1)NC(=O)OC(C)(C)C (centres undefined)	> 100	> 100	> 100	> 100	> 100	> 100	> 100	> 100	> 100	> 100				

SMILES	TGI (T-47D breast) [µM]	TGI (HT29 colon) [µM]	TGI (SF-268 CNS) [µM]	TGI (LOX IMVI melanoma) [µM]	TGI (BT-549 breast) [µM]	TGI (UO-31 renal) [µM]	TGI (KM12 colon) [µM]	TGI (HCT-116 colon) [µM]	TGI (OVCAR-8 ovarian) [µM]	TGI (M14 melanoma) [µM]	GI50 (SF-268 CNS)	GI50 (BT-549 breast)	GI50 (UO-31 renal) [µM]	GI50 (LOX IMVI melanoma) [µM]
COc1cc2nc(-c3cccs3)nc(N3CCN(c4ccccc4)CC3)c2cc1OC	> 100	> 100	> 100	> 100	> 100	> 100	> 100	> 100	> 100	> 100				
CCOP(=O)(OCC)/C(=C/n1c(=S)[nH]c2ccccc21)C(=O)OC	> 100	> 100	> 100	> 100	> 100	> 100	> 100	> 100	> 100	> 100			> 100	
CCOC(=O)c1sc2nc(SC)nc3c2c1NCN3C	25.9	> 100	61.5	> 100	> 100	37.6	> 100	> 100	25.9	> 100				
O=C(CCCCCNC(=O)c1ccc(Cl)cc1)NO	5.14	> 100	57.1	17	> 100	37.8	> 100	10.7	86.8	> 100				
O=c1oc2ccccc2c(O)c1C(c1ccc(OCc2ccccc2)cc1)c1c(O)c2ccccc2oc1=O	> 100	> 100	> 100	> 100	61.8	52.5	> 100	> 100	> 100	> 100				
CCOc1ccc2c(c1)C(/C(C(Cl)=C(Cl)Cl)=[N+](/[O-])OC(=O)c1ccccc1)=N2	> 100	> 100	> 100	> 100	97.8	> 100	> 100	> 100	> 100	> 100				
N#CCCN(CCCCN(CCC#N)C(=O)Nc1ccccc1)C(=O)Nc1ccccc1	> 100	> 100	> 100	> 100	> 100	> 100	> 100	> 100	> 100	> 100				
COc1ccc(NC(=O)CSC(=O)c2ccccc2)c(SCCSSCCSc2cc(OC)ccc2NC(=O)CSC(=O)c2ccccc2)c1	> 100	> 100	> 100	> 100	> 100	> 100	> 100	> 100	> 100	> 100				
CCOC(=O)Cc1[nH]c(C(=O)c2ccccc2)cc1C(=O)c1ccccc1	> 100	> 10	> 100	> 100	38.7	> 10	> 100	33.4	> 10	> 100				
CC1(C)C2CC3C(C)(C2)C31c1cc(Cl)ccc1N (centres undefined)	26.2	27.6	28.3	30.5	30	26.8	28.5	17.5	30.3	24.8				
CCCCCCCCCCCC(=O)N(CCCCCCCCC)CC(O)C(O)C(OC1OC(CO)C(O)C(O)C1O)C(O)CO (centres undefined)	44.3	34.4	39.3	40.2	36.9	30.9	31.2	32.8	39.3	36.9				
COc1cc(C(c2ccccc2)N2C(=O)CC[C@H]2C(=O)O)cc(OC)c1OC (some centres undefined)	> 100	> 100	> 100	> 100	> 100	> 100	> 100	> 100	> 100	> 100				
Cc1nc(N)c(N2CCN(S(=O)(=O)N(Cc3ccccc3)Cc3ccccc3)CC2)c(=O)[nH]1	59.7	63.3	73.5	> 100	> 100	> 100	> 100	> 100	> 100	> 100				
N=c1ncn(C/C=C/c2ccccc2)c2nc[nH]c12	> 100	> 100	> 100	> 100	> 100	> 100	> 100	> 100	> 100	> 100				
O=S(=O)(O)c1ccc(O)c(N=Nc2c(O)ccc3ccccc23)c1	> 100	> 100	> 100	> 100	> 100	> 100	> 100	> 100	> 100	> 100				
CC1(C)CCC2=C(O1)c1ccccc1C(=Nc1ccc([N+](=O)[O-])cc1)C2=O	31	25.2	> 100	> 100	44	22.4	28.2	19.9	> 100	20.5				7.59
c1ccc2c(c1)nnn2C1CCCCO1 (centres undefined)	> 100	> 100	> 100	> 100	> 100	> 100	> 100	> 100	> 100	> 100				
